These are literature values, as cited in patent publication US20220023237A1, “ADDITIVE AND/OR SYNERGISTIC COMBINATIONS OF METFORMIN WITH NUTRACEUTICALS FOR THE PREVENTION, INHIBITION AND TREATMENT OF SARS-COV-2 AND ASSOCIATED COVID-19” (priority 2020, published 2022).

Where two headings read alike, the source gives them in different places.

Data set [1] relates to Nrf2 (+/+) primary peritoneal macrophages.
In data set [2] the test system is LPS-challenged macrophages. To be noted: pre-incubated 6 h, 0 to 50 μM, then LPS 24 h.
The subject of data set [3] is BALB/c mice with LPS-induced ARDS.
Data set [4] has as its system lipopolysaccharide-induced inflammatory reactions.
Data set [5] relates to mice challenged with endotoxin or live Escherichia coli. To be noted: for concentration of IL-1α: controls 1187.0±278.64.
Data set [6] deals with lipopolysaccharide-activated macrophages. To be noted: electrophoretic mobility shift assay. Background: A gel shift assay detects complexes by their altered migration in electrophoresis.
The subject of another data set is macrophage foam cells. Conditions: pretreatment with EGCG.
The test system of data set [7] is rats subjected to myocardial ischemia and reperfusion. Conditions: EGCG 10 mg/kg intravenously, then 10 mg/kg/h.
In data set [8] the test system is mice with experimental colitis.
The test system of another data set is male Sprague-Dawley rats. To be noted: EGCG 10 mg/kg intraperitoneally at 1 and 6 h after CL2P and every 12 h.
Another data set has as its system C57BL6 mice. Conditions: EGCG 10 mg/kg intraperitoneally, 72 h after CL2P.
Data set [9] deals with mice with LPS-induced ARDS.

Take `C[S+]([O-])CCCCN=C=S` (stereo not shown) [sulforaphane, 1-isothiocyanato-4-(methylsulfinyl)-butane]: in data set [1] (LPS-stimulated Nrf2 (+/+) macrophages), the HO-1 expression entry is “significantly augmented”. The “LPS-stimulated mRNA expression, protein expression and production of TNF-alpha, IL-1beta, COX-2 and iNOS” value in data set [1] (pretreatment, Nrf2 (+/+) macrophages) was “potently inhibited”. Further, the “expression of NO and cytokines” value in data set [2] is on record as “able to prevent”. For the same compound, the “Nrf2/antioxidant response element (ARE) pathway” value in data set [3] (pre-treatment) is on record as “activated”. The “PGE2 production, COX-2 and MMP-9 protein expression, iNOS activity” value in data set [3] (sulforaphane 50 mg/kg) was “significantly inhibited”. For the same compound, in data set [3] (sulforaphane 50 mg/kg, LPS 5 mg/kg 3 days later), the “LDH activity, wet-to-dry ratio of the lungs, serum IL-6 and TNF-α, nuclear factor-κB protein expression” value is listed as “significantly decreased”.

With `CC1=CC(=O)C(C(C)C)=CC1=O` [thymoquinone], in [4], the lipopolysaccharide-induced inflammatory reactions entry is “suppressed effectively”. The “concentration of nitric oxide” value in data set [4] (marker of inflammation) is “reduced significantly”. Also, the “concentration of IL-1α” value in [5] (0.75 mg/kg dose) was 310.8 ± 70.93 pg/mL; in data set [5] (1 mg/kg group) it was 428.3 ± 71.32 pg/mL. Also, in data set [5] (0.75 mg/kg, controls 5505.2 ±333.96), the IL-10 levels is 2885.0 ± 553.98 pg/mL. In data set [5] (P values=0.1817 and 0.0851), the “levels of TNF-α and IL-2” value is on record as “relatively lower levels”. Besides, the “renal and hepatic biomarker profiles” value in data set [5] (septic mice) is given as “improved”. Also, the reduction of mortality in data set [5] (septic mice, thymoquinone intraperitoneal) is 80-90%.

Take Epigallocatechin-3-gallate [EGCG]: the “activation of nuclear factor-kappaB” value in data set [6] is listed as “blocked”. Besides, the “TNF-α-induced downregulation of ABCA1 and decrease in cholesterol efflux to apoA1” value with macrophage foam cells is on record as “attenuated”. In addition, in data set [7], the “myocardial damage and myeloperoxidase activity” value is recorded as “reduced”; the “plasma IL-6 and creatine phosphokinase levels” value is given as “decreased”. In data set [8] (50 and 100 mg/kg/day, compared with the MD group), the “disease activity index (DAI) and spleen index (SI)” value was “decreased”. Besides, in data set [8] (mouse, in vivo), the “HIF-1α and STAT3 protein expression in the colon” value is “decreasing”; the “plasma levels of IL-10 and TGF-β1” value is recorded as “increasing”. For the same compound, the “release of IL-6 and IL-17” value in [8] (plasma) is reported as “reduce”. The hypotension entry with male Sprague-Dawley rats is recorded as “significantly improved”. Besides, the survival entry in the data set on C57BL6 mice is on record as “significantly improved”. Besides, the lethal sepsis result with mice (first dose given 24 hours after cecal ligation and puncture) is “rescued”. In the data set with mice (intraperitoneal administration), the lethal endotoxemia entry was “protected”. In [9] (EGCG 10 mg/kg ip), the “expression of IκB-α” value is on record as “increased”; the “expression of TLR-4, MyD88, TRIF and p-p65 in the lung tissue” value is on record as “alleviated”; the “expression of TNF-α, IL-1β and IL-6 in the lung, serum and bronchoalveolar lavage fluid” value was “significantly decreased”; the “expression of p65” value is on record as “no influence”. In addition, the “LPS-induced ARDS (blood gases, histological lesions, wet-to-dry weight ratios, MPO activity)” value in [9] (EGCG 10 mg/kg ip 1 h before LPS 10 mg/kg ip) is given as “attenuated”.
